We go through 2 compounds from patent publication EP2813216A1, “Stabilized amorphous ticagrelor” (Zentiva, a.s., priority 2013, dated 2014).

Series [1] can be described thus: Differential scanning calorimetry (DSC), glass transition temperature. The note with it: neat substance (not a solid solution). Format: physicochemical. Here is the method:
DSC curves were measured with a Pyris 1 (Perkin Elmer) device. The sample charge was 3-4 mg, heating rate 10 °C/min. Nitrogen was used as a carrier gas (20 ml/min).
The products were characterized by XRPD and DSC analysis.
In all cases the Tg values were higher for solid solution of 1:2 ratio than those for 1:1 ratio. Therefore, the 1:2 API to polymer ratio was able to form more physically stable solid solutions. It is known that the physical stability of the solid solution is increased with a higher glass transition temperature (Hancock and Zografi, 1997).
On the technique in general: In DSC, transitions show as peaks or steps in heat flow.

For series [2] the following is noted: low solubility, low permeability; cited from earlier work.

As to `CCCSc1nc(N[C@@H]2C[C@H]2c2ccc(F)c(F)c2)c2nnn([C@@H]3C[C@H](OCCO)[C@@H](O)[C@H]3O)c2n1` [Amorphous ticagrelor, (1S,2S,3R,5S)-3-[7-[(1R,2S)-2-(3,4-Difluorophenyl)cyclopropylamino]-5-(propylthio)-3H-[1,2,3]triazolo[4,5-d]pyrimidin-3-yl]-5-(2-hydroxyethoxy)cyclopentane-1,2-diol], the “glass transition temperature (Tg)” value in series [1] is “about 46 °C”.
Turning to `CCCSc1nc(N[C@@H]2C[C@H]2c2ccc(F)c(F)c2)c2nnn([C@@H]3C[C@H](OCCO)[C@@H](O)[C@H]3O)c2n1` [ticagrelor, (1S,2S,3R,5S)-3-[7-[(1R,2S)-2-(3,4-Difluorophenyl)cyclopropylamino]-5-(propylthio)-3H-[1,2,3]triazolo[4,5-d]pyrimidin-3-yl]-5-(2-hydroxyethoxy)cyclopentane-1,2-diol], the “Biopharmaceutical Classification System (BCS) class” value in series [2] is listed as “class IV”.
